The nature of data set [1]: Mammalian cytotoxicity assay (resazurin), HEK293. Conditions: human, HEK293 cells.
Data set [2] deals with L. donovani MHOM/IN/80/DD8 (ATCC50212). The experiment in a line: L. donovani DD8 intracellular (THP-1) amastigote assay. Conditions: Leishmania donovani. It counts as cell-based.
The nature of data set [3]: Broth microdilution MIC assay, ESKAPE pathogens. It counts as cell-based. Conditions: S. aureus, E. coli, K. pneumoniae, A. baumannii, P. aeruginosa; read-out: antibacterial MIC ESKAPE. A general note: In broth dilution the organism is exposed to a series of concentrations in liquid medium.
The test system of data set [4] is ESKAPE pathogens S. aureus (ATCC 43300), E. coli (ATCC 25922), K. pneumoniae (ATCC 700603), A. baumannii (ATCC 19606), P. aeruginosa (ATCC 27853). The experiment in a line: Broth microdilution MIC assay, ESKAPE pathogens. It counts as cell-based.
Data set [5] relates to C. albicans (ATCC 90028) and C. neoformans (H99, ATCC 208821). The experiment in a line: Broth microdilution MIC assay, fungi. It counts as cell-based. The following applies: for MIC: Candida albicans, read-out: antifungal MIC.
Data set [6] in a line: Mammalian cytotoxicity assay (resazurin), HepG2. Conditions: human, HepG2 cells. (Alamar Blue is a resazurin reagent that responds to reducing activity.)
Data set [7] in a line: Kinetic solubility determination by LC-UV. Conditions: room temperature, 1% DMSO.
Setting [8] is: read-out: antiparasitic IC50 L. donovani.
The mark [9] stands for this setting: read-out: antiparasitic pIC50 ± SE L. donovani (converted).
[10] abbreviates: water, Solubility µM (H2O), 24 h.
The mark [11] stands for this setting: PBS, pH 7.4, Solubility µM (PBS), PBS pH 7.4, 24 h.

Values after ≈ are worked out from the molar mass of the structure shown. Where two headings read alike, the source gives them in different places.

Regarding `Cc1ccc(Cn2c(C)cn3cc([N+](=O)[O-])nc3c2=O)cc1` [25h, 6-Methyl-7-(4-methylbenzyl)-2-nitroimidazo[1,2-a]pyrazin-8(7H)-one], the cytotoxic concentration (CC50) at 24 h in data set [1] and in data set [6] was over 100 µM in each case. The IC50 in data set [2] (setting [8]) is over 40 µM; in data set [2] (setting [9]), over 39.8 µM. Moreover, the minimal inhibitory concentration (MIC) in data set [3] and in data set [5] was over 32 µg/mL each time. Also, the “antibacterial MIC ESKAPE” value in data set [4] was over 32 µg/mL. In data set [5], the “antifungal MIC” value was over 32 µg/mL. The molecule also gave a solubility at 24 h in data set [7] (setting [10]) of 7.5 ± 0.245 µM (≈ 2.24 µg/mL).

Regarding `Cc1ccc(COc2nc(C)cn3cc([N+](=O)[O-])nc23)cc1` [25i, 6-Methyl-8-((4-methylbenzyl)oxy)-2-nitroimidazo[1,2-a]pyrazine], the CC50 at 24 h in data set [1] and in data set [6] was over 100 µM in each case. For the same molecule, the MIC in data set [3] and in data set [5] was over 32 µg/mL each time. The “antibacterial MIC ESKAPE” value in data set [4] was over 32 µg/mL. For the same molecule, the “antifungal MIC” value in data set [5] was over 32 µg/mL. The solubility at 24 h in data set [7] (setting [11]) and in data set [7] (setting [10]) was under 5 µM each time.

Turning to `Cc1cn2cc([N+](=O)[O-])nc2c(=O)n1Cc1cccc(OC(F)(F)F)c1` [25j, 6-Methyl-2-nitro-7-(3-(trifluoromethoxy)benzyl)imidazo[1,2-a]pyrazin-8(7H)-one], the 50% cytotoxic concentration (CC50) at 24 h in data set [1] and in data set [6] was over 100 µM throughout. The IC50 in data set [2] (setting [8]) and in data set [2] (setting [9]) was over 20 µM throughout. The MIC in data set [3] and in data set [5] was over 32 µg/mL in each case. For the same molecule, in data set [4], the “antibacterial MIC ESKAPE” value was over 32 µg/mL. Moreover, in data set [5], the “antifungal MIC” value was over 32 µg/mL. In addition, the solubility at 24 h in data set [7] (setting [11]) and in data set [7] (setting [10]) was under 5 µM throughout.

Turning to `Cc1cn2cc([N+](=O)[O-])nc2c(=O)n1Cc1ccccc1OC(F)(F)F` [25l, 6-Methyl-2-nitro-7-(2-(trifluoromethoxy)benzyl)imidazo[1,2-a]pyrazin-8(7H)-one], the CC50 at 24 h in data set [1] and in data set [6] was over 100 µM in each case. The results for the IC50 in data set [2] (setting [8]) and in data set [2] (setting [9]) were over 40 µM and over 39.8 µM, respectively. Besides, the MIC in data set [3] and in data set [5] was over 32 µg/mL throughout. Moreover, the “antibacterial MIC ESKAPE” value in data set [4] is over 32 µg/mL. For the same molecule, the “antifungal MIC” value in data set [5] is over 32 µg/mL. Besides, the solubility at 24 h in data set [7] (setting [11]) and in data set [7] (setting [10]) was under 5 µM each time.

For the molecule `Cc1cn2cc([N+](=O)[O-])nc2c(OCc2ccccc2OC(F)(F)F)n1` [25m, 6-Methyl-2-nitro-8-((2-(trifluoromethoxy)benzyl)oxy)imidazo[1,2-a]pyrazine], the CC50 at 24 h in data set [1] and in data set [6] was over 100 µM in each case. In addition, the IC50 in data set [2] (setting [8]) was over 40 µM; in data set [2] (setting [9]) it was over 39.8 µM. Also, the minimal inhibitory concentration (MIC) in data set [3] and in data set [5] was over 32 µg/mL each time. For the same molecule, the solubility at 24 h in data set [7] (setting [11]) and in data set [7] (setting [10]) was under 5 µM in each case.

As to `Cc1c(C)n2cc([N+](=O)[O-])nc2c(=O)n1Cc1ccccc1OC(F)(F)F` [26h, 5,6-Dimethyl-2-nitro-7-(2-(trifluoromethoxy)benzyl)imidazo[1,2-a]pyrazin-8(7H)-one], the CC50 at 24 h in data set [1] and in data set [6] was over 100 µM each time. Besides, the minimal inhibitory concentration (MIC) in data set [3] and in data set [5] was over 32 µg/mL each time. The “antibacterial MIC ESKAPE” value in data set [4] was over 32 µg/mL. Further, the “antifungal MIC” value in data set [5] is over 32 µg/mL. The solubility at 24 h in data set [7] (setting [11]) was 4.6 ± 0.6 µM (≈ 1.76 µg/mL); in data set [7] (setting [10]) it was 7.28 ± 0.695 µM (≈ 2.78 µg/mL).

Consider `Cc1nc(OCc2ccccc2OC(F)(F)F)c2nc([N+](=O)[O-])cn2c1C` [26i, 5,6-Dimethyl-2-nitro-8-((2-(trifluoromethoxy)benzyl)oxy)imidazo[1,2-a]pyrazine], for which the 50% cytotoxic concentration (CC50) at 24 h in data set [1] and in data set [6] was over 100 µM in each case. The MIC in data set [3] and in data set [5] was over 32 µg/mL each time. Moreover, the “antibacterial MIC ESKAPE” value in data set [4] is over 32 µg/mL. Besides, in data set [5], the “antifungal MIC” value is over 32 µg/mL. In addition, the solubility at 24 h in data set [7] (setting [11]) and in data set [7] (setting [10]) was under 5 µM in each case.

What is called CC50 is the concentration that lowers cell viability or growth by half. Lower therefore signals greater toxicity to the cells. As usually defined, the MIC is the lowest concentration that inhibits growth of the organism. Usually solubility stands for the dissolved amount per volume that the medium holds. Low values mean a poorly soluble substance, high ones a readily soluble substance.

Source of the values: article PMC6311682, “Design, Synthesis, and Biological Evaluation of 2-Nitroimidazopyrazin-one/-es with Antitubercular and Antiparasitic Activity” (Journal of Medicinal Chemistry, 2018).
